# From US12569468B2, “Use of palovarotene in treatment against HBV virus” (YANG SHENG TANG COMPANY, LTD., priority 2020, dated 2026)
# Columns and labels:
# HBV cccDNA = assay: Southern blot detection of HBV cccDNA in infected HepG2-hNTCP 2B1; format: cell-based, hepatitis B virus; conditions: 5 μM, day 6 to day 12 after infection, compared with interferon IFNα 500 IU control group and blank group
# Experimental: Southern blot experiment was carried out on a 10 cm^2 culture plate. About 5×10^6 HepG2-hNTCP 2B1 cells were plated in each 10 cm^2 culture plate, and medium B was added. After the cells adhered, medium A was used for replacement to perform the induction with Doxycycline during the whole experiment. HBV infection was performed 4 days after the induction with Doxycycline, and the amount of HBV for infection was 1000 MOI. Before infection, HBV was diluted in medium C to obtain HBV solution, and the infection volume was 5 mL. During infection, the cell supernatant was first removed by suction, the HBV solution was added to the cells, the cells were incubated for 24 hours, then the supernatant was collected as the sample of Day 0. Then the cells were washed three times with PBS, and fresh medium A was used for replacement. After that, the supernatant was collected every two days for detection, fresh medium A was used for replacement. […]
# HBV = assay: Therapeutic effect on human primary hepatocytes infected by HBV (drug from day 8 after infection); format: cell-based, hepatitis B virus; conditions: drug added 8 days after infection
# Experimental: The drug to be tested and the positive control drug were diluted with medium H to the required concentrations, and to the blank group the same volume of medium H without drug was added.
# Primary hepatocytes were isolated from humanized mice transplanted with primary human hepatocytes through perfusion technique, directly cultured in 24-well plates after counting (5×10^5 primary hepatocytes per well), and medium H was added to maintain hepatocyte morphology. Infection with HBV was performed 24 hours after culturing, the amount of HBV for infection in each well was 2000 MOI. Before infection, HBV was first dissolved in medium I to obtain HBV solution, and the infection volume was 250 μL/well. During infection, the cell supernatant was first removed by suction, the HBV solution was added to the cells, the cells were incubated for 24 hours, then the supernatant was collected as the sample of Day 0, and then the supernatant was collected every two days for detection, fresh medium H was used for replacement. On the 8th day, fresh drug-containing medium H was used for replacement to start the drug treatment, until the 14th day, all the supernatant and the cells were collected for relevant detection. The detection items included: HBsAg, HBeAg, HBV DNA, HBV cccDNA, and for the detection method, please refer to Example 1.
# HepG2 hNTCP 2B1 = assay: Safety assessment, CCK-8 cell activity, HepG2-hNTCP 2B1; format: cell-based; conditions: 1 μM, 5 μM and 25 μM, 6 days treatment
# Experimental: (§1) This experiment was carried out in a 96-well culture plate, with 8×10^4 corresponding cells plated in each well, and the corresponding medium volume was 100 μL, in which each drug to be tested in the HepG2-hNTCP 2B1, HepaRG M14A and primary hepatocyte experimental groups had three final concentrations of 1 μM, 5 μM and 25 μM, each drug to be tested in the HepAD38 cell experimental group had two final concentrations of 1 μM and 5 μM (the drug was diluted with the corresponding medium to the final concentrations, specifically please refer to Example 1, Example 2, Example 4 and Example 5), and to the blank group the same volume of culture medium without drug was added. After the cells had grown to a suitable density, drug was added to perform treatment for 6 days, during which, the medium was changed every two days with fresh drug-containing medium. After the drug treatment, 110 μL of medium containing Beyotime CCK-8 cell activity detection reagent (purchased from Beyotime, Art. No. C0038) (the volume ratio of medium to CCK-8 reagent was 100:10) was used for replacement, the cells were incubated at 37° C. for 30 min, and then all the supernatant was collected for detection of absorbance. The absorbance value was read on PHOMO microplate reader purchased from Zhengzhou Autobio.
# HepaRG M14a = assay: Safety assessment, CCK-8 cell activity, HepaRG M14a; format: cell-based; conditions: 1 μM, 5 μM and 25 μM, 6 days treatment
# Experimental: as §1
# [1] = to day 14, p<0.05, more obvious at 5 μM and 25 μM
smiles,measurement,setting,value
CC1(C)CCC(C)(C)c2cc(Cn3cccn3)c(/C=C/c3ccc(C(=O)O)cc3)cc21 [Palovarotene],level of HBV cccDNA (Southern blot),HBV cccDNA,significantly lower
same,HBV cccDNA,"HBV; to day 14, 25 μM, p<0.01",significant inhibitory effects
same,HBV DNA,"HBV; to day 14, 25 μM, p<0.05",significant inhibitory effects
same,level of HBeAg in the cell supernatant,HBV; [1],significantly inhibited
same,level of HBsAg in the cell supernatant,HBV; [1],significantly inhibited
same,CCK-8 absorbance value (cell activity) vs blank group,HepG2 hNTCP 2B1,not significantly different
same,CCK-8 absorbance value (cell activity) vs blank group,HepaRG M14a,not significantly different
